Source: patent publication US12396995B2, “Substituted 4-aminoisoindoline-1,3-dione compounds and second active agents for combined use” (Celgene Corporation, priority 2019, dated 2025)

Columns and labels:
[1] = system: DB DLBCL xenograft tumors; experiment: DB (DLBCL) xenograft model, Compound 1 alone and with tazemetostat; format: in vivo, female SCID mice; details: single agent tazemetostat 200 mg/kg oral BID, three weeks
Method: (§1) Anti-tumor activity of Compound 1 alone and in combination with tazemetostat was studied in DB (DLBCL) xenograft model. Compound 1 (3, 10 or 30 mg/kg) was administered once daily for 5 consecutive days followed by 2 days off (5 D on/2 D off) and tazemetostat (200 mg/kg) was administered twice daily (BID).
(§2) Methods: Xenograft study was conducted with female SCID mice bearing DB DLBCL xenograft tumors. Female SCID mice were inoculated subcutaneously with DB cells in the flank region above the right hind leg. Following inoculation of animals, the tumors were allowed to grow to approximately 200 mm^3 prior to randomization. On day 33 following tumor cell inoculation, the mice bearing DB tumors ranging between 150 and 250 mm^3 were pooled together and randomized into various treatment groups. Compound 1 was formulated in 0.5% Methyl Cellulose, 0.25% Tween 80 and 50 mM Citrate pH 3 in water. Tazemetostat was formulated in CMC-Tween. Compound 1 (3, 10 or 30 mg/kg) was orally administered with three cycles of once daily for 5 consecutive days followed by 2 days off starting from day 33 after tumor cell inoculation. Tazemetostat (200 mg/kg) was orally administered twice day (BID) for three weeks. In combination group the animals received Compound 1 (3, 10 or 30 mg/kg, 5 D on/2 D off) and tazemetostat (200 mg/kg, BID) simultaneously for three weeks starting from day 33 after tumor cell inoculation. Tumors were measured twice a week using calipers and tumor volumes were calculated using the formula of W^2×L/2. Statistical analysis was performed using a one-way or 2-way analysis of variance (ANOVA). Synergy calculations were performed using fractional product method.

[2] = system: WSU-DLCL2 DLBCL xenograft tumors; experiment: WSU-DLCL2 (DLBCL) xenograft model, Compound 1 alone and with tazemetostat; format: in vivo, female SCID mice; details: single agent tazemetostat 200 mg/kg oral BID, three weeks
Method: as §1, with “WSU-DLCL2” for “DB”, “(1” for “(3, 10 or 30”
as §2, with “bearing WSU-DLCL2” for “bearing DB”, “with WSU-DLCL2” for “with DB”, “day 14” for “day 33”, “1 (1” for “1 (3, 10 or 30”, “Tazemetostat 200” for “Tazemetostat (200”, “1 (1 mg/kg/5” for “1 (3, 10 or 30 mg/kg, 5”

[3] = system: cell lines from hematological malignancies; experiment: Cell Titer Glo proliferation, Compound 1 in combination with second active agents; format: cell-based; details: very sensitive cell lines such as JJN-3, SU-DHL2 or SU-DHL10; combined with Compound 1
Method: Cell Lines/Cells: Activated B-Cell (ABC) cell lines: TMD-8, SU-DHL-2, OCI-Ly10, RIVA, U2932; and Germinal Center B-cell (GCB) cell lines: SU-DHL10, Pfeiffer, WSU-DLCL2, SU-DHL4, DB; myeloma cell lines: H929, JJN3 and SK-MM1; acute myeloid leukemia cell line: HNT-34; acute lymphocytic leukemia cell line: Karpas-231; other lymphoma cell lines: Daudi, Karpas-299, HuT-102, L-428.
Alternatively, combination compound solutions were serially diluted from 5 μM starting concentration and serially diluted 6-fold for a 6-point dilution curve. […] Cells were added to each well and cultured for 3 days. […] For some other epigenetic agents (EPZ5676, C646, OICR-9429, ACY-241, GSK3484862, Compound C, UNC 0631, GSK3326595, LP99, A-196, CARM1 EZM2302) cells were cultured for 5 days due to their mechanism of action.
Plates were either made at a concentration of 10 μM or 1 μM diluted 3-fold for a 10-point dilution curve, with a final DMSO concentration of 0.2%. All cell line solutions were diluted to a concentration of 100,000 cells/mL and added to each well in a volume of 50 μL, with the exception of SU-DHL-6 solution, which was diluted to 25,000 cells/mL. At the end of the treatment period cells were lysed with Cell Titer Glo (CTG) reagents following manufacture recommendation. Luminescent signal was read using an Envision and data was normalized by DMSO for data analysis.
Data Analysis: The combination effect was analyzed by combining results from Highest Single Agent (HSA) and Bliss Independency methods. See, e.g., Foucquier J, Guedj M., Analysis of drug combinations: current methodological landscape. Pharmacol Res Perspect. 2015; 3(3):e00149. doi:10.1002/prp2.149.
Combined results of HSA and Bliss scores were used to define synergistic and additive effect of the combinations.

| Structure (SMILES) | effect on proliferation of combination with Compound 1 (HSA and Bliss scores) [3] | other results |
| --- | --- | --- |
| CCN(c1cc(-c2ccc(CN3CCOCC3)cc2)cc(C(=O)NCc2c(C)cc(C)[nH]c2=O)c1C)C1CCOCC1 [tazemetostat, N-[(1,2-dihydro-4,6-dimethyl-2-oxo-3-pyridinyl)methyl]-5-[ethyl(tetrahydro-2H-pyran-4-yl)amino]-4-methyl-4′-(4-morpholinylmethyl)-[1,1′-biphenyl]-3-carboxamide, reference compound] | – | inhibition of tumor growth (TVR) [1]: 64.5%; inhibition of tumor growth (TVR) ([1]; listed as Tazemetostat): −45.9%; inhibition of tumor growth [2]: −50.5% |
| COc1cc(Nc2ncc3c(n2)-c2ccc(Cl)cc2C(c2c(F)cccc2OC)=NC3)ccc1C(=O)O [alisertib, 4-((9-chloro-7-(2-fluoro-6-methoxyphenyl)-5H-benzo[c]pyrimido[4,5-e]azepin-2-yl)amino)-2-methoxybenzoic acid] | synergistic effects | – |
| CO[C@H]1C[C@@H]2CC[C@@H](C)[C@@](O)(O2)C(=O)C(=O)N2CCCC[C@H]2C(=O)O[C@H]([C@H](C)C[C@@H]2CC[C@@H](OCCO)[C@H](OC)C2)CC(=O)[C@H](C)/C=C(\C)[C@@H](O)[C@@H](OC)C(=O)[C@H](C)C[C@H](C)/C=C/C=C/C=C/1C [everolimus, 40-O-(2-hydroxyethyl)-rapamycin] | synergistic effects | – |
| Cc1sc2c(c1C)C(c1ccc(Cl)cc1)=N[C@@H](CC(=O)Nc1ccc(O)cc1)c1nnc(C)n1-2 [birabresib, (S)-2-(4-(4-chlorophenyl)-2,3,9-trimethyl-6H-thieno[3,2-f][1,2,4]triazolo[4,3-a][1,4]diazepin-6-yl)-N-(4-hydroxyphenyl)acetamide] | synergistic effects | – |
| Cc1[nH]c2ccccc2c1CCNCc1ccc(/C=C/C(=O)NO)cc1 [panobinostat, (2E)-N-hydroxy-3-[4-({[2-(2-methyl-1H-indol-3-yl)ethyl]amino}methyl)phenyl]acrylamide] | synergistic effects | – |
| Cc1cnc(Nc2ccc(OCCN3CCCC3)cc2)nc1Nc1cccc(S(=O)(=O)NC(C)(C)C)c1 [fedratinib, N-tert-butyl-3-[(5-methyl-2-{4-[2-(pyrrolidin-1-yl)ethoxy]anilino}pyrimidin-4-yl)amino]benzenesulfonamide] | synergistic effects | – |
| CC[C@]1(O)C[C@H]2CN(CCc3c([nH]c4ccccc34)[C@@](C(=O)OC)(c3cc4c(cc3OC)N(C=O)[C@H]3[C@@](O)(C(=O)OC)[C@H](OC(C)=O)[C@]5(CC)C=CCN6CC[C@]43[C@@H]65)C2)C1 [vincristine] | synergistic effects | – |
